Reference: the supplement of paper PMC12463676, “Small-molecule dissolution of stress granules by redox modulation benefits ALS models” (Nature Chemical Biology, 2025)

Legend:
[1] = compound: NC(=O)CCCCC1CCSS1 [lipoamide]; experiment: thermal stability z-score vs DMSO; higher = more thermally stabilized by treatment; details: HeLa, lipoamide concentration 100 µM
Procedure: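 Cellular thermal proteome profiling in HeLa cells. Cells were treated with 100 µM lipoamide for 1 h, with or without 1 mM arsenate for a further 1 h, then heated to ten temperatures (37-66.3 °C), and soluble protein was quantified by TMT mass spectrometry relative to 0.1% DMSO controls. The thermal stability score (sum of log2 fold changes minus the abundance score) was transformed to a z-score; mean of n = 3 experiments.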

[2] = compound: O=[As]([O-])(O)O.[K+] [potassium arsenate]; experiment: as above; details: HeLa; arsenate concentration 1 mM
Procedure: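 Cellular thermal proteome profiling in HeLa cells treated with 1 mM arsenate for 1 h (DMSO pretreatment), heated to ten temperatures (37-66.3 °C). Soluble protein was quantified by TMT mass spectrometry relative to DMSO controls; the thermal stability score was transformed to a z-score; mean of n = 3 experiments.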

[3] = arsenate co-treatment: 1 mM arsenate 1 h
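Also: each temperature applied for 3 min, abundance score taken as mean log2 fold change at the two lowest temperatures, z-score obtained by mean subtraction and division by SD.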

Chain of UniProt Q9NTX5 (Q9NTX5 whole entry): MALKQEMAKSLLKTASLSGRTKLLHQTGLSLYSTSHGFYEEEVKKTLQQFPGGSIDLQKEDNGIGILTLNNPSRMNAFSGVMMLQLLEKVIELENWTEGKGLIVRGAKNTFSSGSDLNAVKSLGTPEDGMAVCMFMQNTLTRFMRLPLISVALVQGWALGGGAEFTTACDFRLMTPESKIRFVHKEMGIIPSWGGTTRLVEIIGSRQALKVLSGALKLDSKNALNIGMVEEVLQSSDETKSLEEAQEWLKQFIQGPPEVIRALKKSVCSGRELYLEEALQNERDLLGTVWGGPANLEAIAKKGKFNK
Chain of UniProt Q12882 (Q12882 whole entry): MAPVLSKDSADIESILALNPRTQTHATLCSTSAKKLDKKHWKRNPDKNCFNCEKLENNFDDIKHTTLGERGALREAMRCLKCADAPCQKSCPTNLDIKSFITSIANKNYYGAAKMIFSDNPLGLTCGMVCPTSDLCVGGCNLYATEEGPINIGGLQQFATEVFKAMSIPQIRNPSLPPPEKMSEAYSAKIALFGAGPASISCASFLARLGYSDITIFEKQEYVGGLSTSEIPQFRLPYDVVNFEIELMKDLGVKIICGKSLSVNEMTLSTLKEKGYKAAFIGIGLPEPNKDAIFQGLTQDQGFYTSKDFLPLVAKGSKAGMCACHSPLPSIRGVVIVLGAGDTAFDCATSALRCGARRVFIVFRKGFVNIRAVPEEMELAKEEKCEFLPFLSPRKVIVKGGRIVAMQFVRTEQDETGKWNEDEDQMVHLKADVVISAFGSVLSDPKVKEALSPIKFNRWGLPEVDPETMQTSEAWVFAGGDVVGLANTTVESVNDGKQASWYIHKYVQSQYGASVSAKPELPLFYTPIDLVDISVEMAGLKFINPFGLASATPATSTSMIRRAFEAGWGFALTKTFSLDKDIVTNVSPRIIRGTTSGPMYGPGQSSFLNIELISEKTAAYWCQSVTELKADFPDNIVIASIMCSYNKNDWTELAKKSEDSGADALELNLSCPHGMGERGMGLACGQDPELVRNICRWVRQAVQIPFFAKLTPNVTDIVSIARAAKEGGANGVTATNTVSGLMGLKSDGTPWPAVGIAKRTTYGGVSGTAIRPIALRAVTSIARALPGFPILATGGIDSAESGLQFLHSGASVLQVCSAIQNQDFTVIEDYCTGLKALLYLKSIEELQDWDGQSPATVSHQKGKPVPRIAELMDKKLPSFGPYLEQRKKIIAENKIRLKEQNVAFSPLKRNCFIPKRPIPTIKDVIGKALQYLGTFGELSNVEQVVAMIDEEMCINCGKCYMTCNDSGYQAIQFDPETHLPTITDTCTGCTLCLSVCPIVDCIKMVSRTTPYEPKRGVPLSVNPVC
Chain of UniProt Q9NX62 (Q9NX62 whole entry): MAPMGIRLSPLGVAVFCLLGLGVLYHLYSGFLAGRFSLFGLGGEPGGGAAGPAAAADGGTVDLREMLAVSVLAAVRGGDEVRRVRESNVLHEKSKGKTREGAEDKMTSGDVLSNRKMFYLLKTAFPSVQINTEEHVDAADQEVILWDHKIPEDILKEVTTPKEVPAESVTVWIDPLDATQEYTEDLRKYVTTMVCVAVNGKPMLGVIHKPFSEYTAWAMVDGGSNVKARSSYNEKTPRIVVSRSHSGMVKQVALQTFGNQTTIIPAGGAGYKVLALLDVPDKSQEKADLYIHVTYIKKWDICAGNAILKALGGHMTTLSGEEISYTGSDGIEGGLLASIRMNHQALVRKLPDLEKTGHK
Chain of UniProt Q9H7S9 (Q9H7S9 whole entry): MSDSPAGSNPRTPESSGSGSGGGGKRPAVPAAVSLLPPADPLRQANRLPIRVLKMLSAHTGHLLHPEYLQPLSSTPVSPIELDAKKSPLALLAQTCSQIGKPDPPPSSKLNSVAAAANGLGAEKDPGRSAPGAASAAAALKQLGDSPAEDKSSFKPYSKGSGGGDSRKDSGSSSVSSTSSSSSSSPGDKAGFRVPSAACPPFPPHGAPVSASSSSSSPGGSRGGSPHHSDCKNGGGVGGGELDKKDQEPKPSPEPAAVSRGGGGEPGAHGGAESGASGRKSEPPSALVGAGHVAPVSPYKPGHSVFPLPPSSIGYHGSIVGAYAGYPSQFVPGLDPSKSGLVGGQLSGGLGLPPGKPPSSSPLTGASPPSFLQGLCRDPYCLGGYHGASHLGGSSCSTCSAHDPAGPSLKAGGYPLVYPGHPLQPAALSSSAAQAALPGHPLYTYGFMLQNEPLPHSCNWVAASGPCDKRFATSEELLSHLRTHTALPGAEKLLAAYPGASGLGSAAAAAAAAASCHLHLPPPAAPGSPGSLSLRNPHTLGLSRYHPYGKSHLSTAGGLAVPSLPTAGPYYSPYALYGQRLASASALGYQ
Chain of UniProt O94919 (O94919 whole entry): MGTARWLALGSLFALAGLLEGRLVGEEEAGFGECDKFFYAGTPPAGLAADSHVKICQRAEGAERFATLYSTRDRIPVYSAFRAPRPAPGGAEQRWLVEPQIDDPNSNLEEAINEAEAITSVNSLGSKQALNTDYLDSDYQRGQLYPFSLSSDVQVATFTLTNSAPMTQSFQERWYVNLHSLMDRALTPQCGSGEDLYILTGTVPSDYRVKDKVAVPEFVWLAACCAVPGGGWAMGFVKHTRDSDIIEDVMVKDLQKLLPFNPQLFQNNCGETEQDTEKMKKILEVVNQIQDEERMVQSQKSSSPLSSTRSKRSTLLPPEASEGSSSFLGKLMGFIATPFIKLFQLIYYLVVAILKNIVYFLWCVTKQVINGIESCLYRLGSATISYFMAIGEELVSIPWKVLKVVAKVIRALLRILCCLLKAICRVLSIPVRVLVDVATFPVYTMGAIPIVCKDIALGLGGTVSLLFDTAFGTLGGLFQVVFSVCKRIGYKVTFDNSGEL
Chain of UniProt Q5U5X0 (Q5U5X0 whole entry): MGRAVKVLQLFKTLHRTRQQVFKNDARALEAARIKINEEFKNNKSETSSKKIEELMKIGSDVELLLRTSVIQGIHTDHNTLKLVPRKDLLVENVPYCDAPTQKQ
Chain of UniProt P46199 (P46199 whole entry): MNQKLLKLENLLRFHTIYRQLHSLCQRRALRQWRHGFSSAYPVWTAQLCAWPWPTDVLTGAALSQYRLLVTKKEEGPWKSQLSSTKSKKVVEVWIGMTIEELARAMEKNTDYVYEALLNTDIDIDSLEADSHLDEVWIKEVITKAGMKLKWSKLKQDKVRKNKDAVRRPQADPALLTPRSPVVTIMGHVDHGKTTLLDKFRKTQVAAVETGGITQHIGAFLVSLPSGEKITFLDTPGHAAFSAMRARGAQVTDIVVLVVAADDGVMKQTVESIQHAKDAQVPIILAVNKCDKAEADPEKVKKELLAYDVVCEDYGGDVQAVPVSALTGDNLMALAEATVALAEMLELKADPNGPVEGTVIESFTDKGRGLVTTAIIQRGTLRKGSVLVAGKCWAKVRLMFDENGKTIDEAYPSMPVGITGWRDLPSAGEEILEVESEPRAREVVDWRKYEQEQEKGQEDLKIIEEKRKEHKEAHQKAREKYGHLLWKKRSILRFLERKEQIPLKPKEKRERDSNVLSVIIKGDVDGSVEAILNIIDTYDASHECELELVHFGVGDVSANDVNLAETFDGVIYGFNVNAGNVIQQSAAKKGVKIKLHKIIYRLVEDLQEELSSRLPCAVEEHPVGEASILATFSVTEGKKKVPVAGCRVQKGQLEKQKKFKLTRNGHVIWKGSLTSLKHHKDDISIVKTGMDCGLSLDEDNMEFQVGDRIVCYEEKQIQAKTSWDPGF
Chain of UniProt Q8NCG7 (Q8NCG7 whole entry): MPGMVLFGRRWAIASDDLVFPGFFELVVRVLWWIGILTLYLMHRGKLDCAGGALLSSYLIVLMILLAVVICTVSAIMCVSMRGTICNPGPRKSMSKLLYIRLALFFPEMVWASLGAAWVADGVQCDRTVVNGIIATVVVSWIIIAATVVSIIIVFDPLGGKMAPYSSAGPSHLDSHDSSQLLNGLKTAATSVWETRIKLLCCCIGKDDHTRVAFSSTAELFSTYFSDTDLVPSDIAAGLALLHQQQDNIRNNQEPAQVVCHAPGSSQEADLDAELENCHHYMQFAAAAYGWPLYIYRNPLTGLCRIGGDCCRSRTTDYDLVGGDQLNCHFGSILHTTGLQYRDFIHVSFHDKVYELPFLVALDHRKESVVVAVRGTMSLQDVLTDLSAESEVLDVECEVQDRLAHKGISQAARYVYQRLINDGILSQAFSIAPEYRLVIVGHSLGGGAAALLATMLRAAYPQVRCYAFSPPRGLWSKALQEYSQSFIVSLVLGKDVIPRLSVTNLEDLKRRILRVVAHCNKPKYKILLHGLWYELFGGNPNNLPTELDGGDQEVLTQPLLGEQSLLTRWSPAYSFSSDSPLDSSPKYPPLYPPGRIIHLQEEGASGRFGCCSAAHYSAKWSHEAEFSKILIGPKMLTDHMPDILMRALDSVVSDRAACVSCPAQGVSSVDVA
Chain of UniProt Q9H425 (Q9H425 whole entry): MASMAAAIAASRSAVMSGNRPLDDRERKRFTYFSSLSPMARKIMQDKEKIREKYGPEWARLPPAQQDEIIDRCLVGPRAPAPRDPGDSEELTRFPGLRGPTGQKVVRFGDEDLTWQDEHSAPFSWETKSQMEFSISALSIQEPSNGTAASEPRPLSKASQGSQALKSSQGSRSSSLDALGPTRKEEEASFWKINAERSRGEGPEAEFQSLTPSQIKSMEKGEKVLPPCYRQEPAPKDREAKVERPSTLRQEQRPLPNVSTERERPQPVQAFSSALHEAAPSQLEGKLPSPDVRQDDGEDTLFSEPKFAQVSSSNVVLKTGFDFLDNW
Chain of UniProt Q96HA8 (Q96HA8 whole entry): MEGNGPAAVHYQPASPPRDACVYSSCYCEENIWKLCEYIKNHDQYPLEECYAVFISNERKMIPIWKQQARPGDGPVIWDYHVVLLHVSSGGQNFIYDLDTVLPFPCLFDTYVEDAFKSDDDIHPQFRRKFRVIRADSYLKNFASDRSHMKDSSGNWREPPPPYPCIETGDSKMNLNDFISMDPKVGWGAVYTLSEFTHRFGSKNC
Chain of UniProt P53680 (P53680 whole entry): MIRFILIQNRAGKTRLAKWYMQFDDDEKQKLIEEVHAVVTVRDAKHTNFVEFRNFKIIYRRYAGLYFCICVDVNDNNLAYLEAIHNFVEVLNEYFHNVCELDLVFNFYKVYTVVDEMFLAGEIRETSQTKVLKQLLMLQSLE

Target	thermal stability z-score [1, 3]	thermal stability z-score ([1]; arsenate co-treatment: none)	thermal stability z-score [2]
LRRFIP1 (UniProt Q32MZ4)	0.409	0.475	0.228
DPYD (UniProt Q12882)	0.0898	0.178	0.0708
SUPT16H (UniProt Q9Y5B9)	1.01	1.11	0.819
IL1RAP (UniProt Q9NPH3)	-0.15	-0.0435	-0.164
LZTFL1 (UniProt Q9NQ48)	0.0385	0.0985	-0.312
PRNP	0.0235	0.239	0.0499
AP2S1 (UniProt P53680)	-0.111	-0.0691	0.767
MARK2 (UniProt Q7KZI7)	-0.0322	0.0698	0.0503
HNRNPA2B1 (UniProt P22626)	0.93	0.512	0.0566
CALM1 (UniProt P0DP23)	3.06	1.53	1.29
ADAT3 (UniProt Q96EY9)	-0.293	0.276	-0.301
CREBBP (UniProt Q92793)	0.397	-0.0649	-0.693
TSC22D4 (UniProt Q9Y3Q8)	-1.89	-0.035	-0.0991
ARIH1 (UniProt Q9Y4X5)	-0.0195	-0.0439	-0.568
ATRN (UniProt O75882)	0.622	-0.532	0.705
C1ORF198 (UniProt Q9H425)	-0.254	0.135	0.635
CD276 (UniProt Q5ZPR3)	0.196	-0.174	0.000316
ENDOD1 (UniProt O94919)	-1.14	-0.77	0.443
GALK2 (UniProt Q01415)	0.547	-0.155	-0.778
KNTC1 (UniProt P50748)	-0.59	-0.253	0.572
MTIF2 (UniProt P46199)	-0.77	-1.59	-0.789
CCDC124 (UniProt Q96CT7)	0.0112	-0.0241	-0.605
GEMIN5 (UniProt Q8TEQ6)	-0.411	-0.402	-0.93
SLC35B2 (UniProt Q8TB61)	-0.113	-0.134	0.579
PRKCSH (UniProt P14314)	-2.77	-2.47	0.768
ZNF703 (UniProt Q9H7S9)	0.173	0.148	0.019
MIB1 (UniProt Q86YT6)	-0.621	-0.586	-1.05
SDSL (UniProt Q96GA7)	0.0811	1.46	-0.745

Target	thermal stability z-score [1, 3]	thermal stability z-score ([1]; arsenate co-treatment: none)	thermal stability z-score [2]
RPTOR (UniProt Q8N122)	0.0585	0.132	0.227
RAB7A (UniProt P51149)	0.164	0.352	0.258
CPS1 (UniProt P31327)	-0.756	0.095	-1.39
PROSER2 (UniProt Q86WR7)	-0.111	-0.0827	-0.644
NT5C3A (UniProt Q9H0P0)	0.0681	0.155	-1.77
C11ORF31|SELH	0.115	0.162	-0.153
PPP1R13L (UniProt Q8WUF5)	-0.367	-0.132	-0.21
LYRM7 (UniProt Q5U5X0)	0.507	0.358	-0.0732
WWC2 (UniProt Q6AWC2)	-0.0127	-0.0518	-0.129
RPRD1A (UniProt Q96P16)	-0.123	-0.0762	-0.037
TARS2 (UniProt Q9BW92)	0.183	0.625	0.922
PNKD (UniProt Q8N490)	0.175	0.758	0.929
FXN (UniProt Q16595)	0.688	0.447	1.14
DNASE2 (UniProt O00115)	0.424	0.747	0.114
MMACHC (UniProt Q9Y4U1)	-0.0163	-0.159	-0.12
VIM (UniProt P08670)	1.82	1.15	0.432
WDYHV1 (UniProt Q96HA8)	0.206	0.157	-0.625
ESPL1 (UniProt Q14674)	0.424	-0.509	1.94
MOCOS (UniProt Q96EN8)	0.344	0.221	-0.535
IMPAD1 (UniProt Q9NX62)	-0.426	-0.356	-0.352
PLCG1 (UniProt P19174)	0.538	0.247	0.623
DMXL1 (UniProt Q9Y485)	0.485	0.00841	-0.0177
DSTN (UniProt P60981)	0.471	0.0123	-1.22
C12ORF10 (UniProt Q9HB07)	-0.0259	-1.16	0.0961
ECHDC1 (UniProt Q9NTX5)	0.928	0.478	0.479
NDC1 (UniProt Q9BTX1)	0.0748	0.0634	0.177
DAGLB (UniProt Q8NCG7)	0.268	0.278	0.0163
